Assay: lipophilicity (Log P)
Format: physicochemical
Excerpt: One possible reason for the self emulsifying behavior of the Capmul-free formulation is that tipranavir which is a highly lipophilic compound (Log P=6) once dissolved serves as a lipid core in this pre-concentrated microemulsion system. However, this rationale is only a theory and it was certainly not available to serve as guidance and motivation to us when we set about to solve the instability problem posed by the Capmul-containing formulation.

Compound: CCC[C@@]1(CCc2ccccc2)CC(O)=C([C@H](CC)c2cccc(NS(=O)(=O)c3ccc(C(F)(F)F)cn3)c2)C(=O)O1 [tipranavir, N-[3-[(1R)-1-[(6R)-5,6-dihydro-4-hydroxy-2-oxo-6-(2-phenylethyl)-6-propyl-2H-pyran-3-yl]propyl]phenyl]-5-(trifluoromethyl)-2-pyridinesulfonamide]
- logP: 6
